# Where two headings read alike, the source gives them in different places. Ends that are not written are not given here.
# Experiments:
# HeLa cells [1] = experiment: GFP-NLS protein transduction assay (flow cytometry: Pos cells %, viability %, relative fluorescence intensity; microscopy); settings: for Mean % cells with GFP signal (±St. Dev.; n = 3): Table B2, HeLa cells, GFP-NLS cargo; for FIG. 13B Cell viability (%) (±St Dev.; n = 3): Table 5.1; for FIG. 13B Cell viability (%) (±St Dev.; n = 3) / FIG. 21B Cell viability (%) (±St. Dev.; n = 3): GFP-NLS 5 μM, HeLa, 1 hour; for FIG. 21B Cell viability (%) (±St. Dev.; n = 3): Table 8.1
# NK-92 cells = experiment: NKG2A gene inactivation by delivered CRISPR/Cpf1-NLS: PE anti-NKG2A immunolabelling, FACS; format: cell-based, Human; settings: FSD23 6 μM; Cpf1-NLS 1.5 μM; 90 sec; 48 h
# Procedure: Genome editing was performed in NK-92 cells to evaluate whether inactivation of the endogenous NKG2A gene could increase the cytotoxicity of the NK-92 cells. Briefly, one million NK-92 cells were incubated with Cpf1-NLS (1.5 μM) gRNA complex targeting the NKG2A gene and with FSD23 (6 μM) for 90 sec. After transduction, cells were incubated in complete medium with IL-2 (20 ng/mL) for 48 h at 37° C. NK-92 cells were then immunolabelled with a phycoerythrin (PE)-labelled anti-NKG2A antibody (Miltenyi Biotec #CD159a) following the manufacturer recommendations. NK-92 cells were then analyzed with FACS and scored as a function of their anti-NKG2A detection (PE fluorescence) level and the results are shown in FIG. 57A. As controls, unlabelled wild-type NK-92 cells (“unlabelled WT cells”) had no antibody signal, and labelled wild-type NK-92 cells (“labelled WT cells”) had full immunolabelling signal.
# Jurkat cells = experiment: Cleaved PARP ELISA assay after transduction of anti-Active Caspase 3 or anti-TNF antibody (± actinomycin D); format: cell-based, Human; settings: FSD23 7.5 μM, 5 min
# Procedure: (§1) A monoclonal (mAb) and a polyclonal (pAb) anti-Active Caspase 3 antibodies […] were independently co-incubated with THP-1 and Jurkat cells for 5 min in the presence of FSD23 at 7.5 μM. The anti-apoptotic effect of each antibody was assessed via the level of Caspase 3-activated apoptosis with an ELISA cleaved PARP assay and quantified by spectrometry as described below.
# (§2) The day of the experiment, cells in exponential growth phase were harvested, centrifugated (400g for 3 min) and resuspended in serum-free RPMI in a 96-well plate (500,000 cells in 150 μL per well). Cells were centrifugated and incubated for 5 min with a mix composed by the peptide to be tested (7.5 μM) and 2 μg of the antibody to be transduced. Cells were centrifuged and resuspended in RPMI with serum in a 24-well plate for 1 h at 37° C. Actinomycin D (2 μg/mL), a cytotoxic inducer of apoptosis, was incubated with the cells for 4 h. Cells were washed with cold PBS and tested using the PARP (Cleaved) [214/215]Human ELISA Kit (ThermoFisher) according to the manufacturer's instructions followed by spectroscopy analysis. […]
# in vitro [2] = settings: human, HeLa cells
# B2M genomic DNA sequence = experiment: T7E1 DNA cleavage assay / % INDELs after CRISPR/Cas9-NLS or CRISPR/Cpf1-NLS delivery (HeLa, THP-1, NK, T cells); format: cell-based, Human; settings: CRISPR/Cpf1 1.33 μM, crRNA 2 μM; THP-1 and NK cells; different concentrations and exposure times
# Excerpt: The T7 endonuclease I (T7E1) can be used to detect on-target CRISPR/Cas genome editing events in cultured cells. As an overview, genomic DNA from target cells is amplified by PCR. The PCR products are then denatured and reannealed to allow heteroduplex formation between wild-type DNA and CRISPR/Cas-mutated DNA. T7E1, which recognizes and cleaves mismatched DNA, is used to digest the heteroduplexes. The resulting cleaved and full-length PCR products are visualized by gel electrophoresis.
# The T7E1 assay was performed with the Edit-R™ Synthetic crRNA Positive Controls (Dharmacon #U-007000-05) and the T7 Endonuclease I (NEB, Cat #M0302S). After the delivery of the CRISPR/Cas complex, cells were lysed in 100 μL of Phusion™ High-Fidelity DNA polymerase (NEB #M0530S) laboratory with additives. The cells were incubated for 15-30 minutes at 56° C., followed by deactivation for 5 minutes at 96° C. The plate was briefly centrifuged to collect the liquid at bottom of the wells. 50-μL PCR samples were set up for each sample to be analyzed. The PCR samples were heated to 95° C. for 10 minutes and then slowly (>15 minutes) cooled to room temperature. PCR product (-5 μL) was then separated on an agarose gel (2%) to confirm amplification. 15 μL of each reaction was incubated with T7E1 nuclease for 25 minutes at 37° C. Immediately, the entire reaction volume was run with the appropriate gel loading buffer on an agarose gel (2%).
# Cas9-NLS recombinant protein was prepared as described in Example 13.1. Cpf1-NLS recombinant protein was prepared as described in Example G.2. A mix composed of a Cas9-NLS recombinant protein with its respective crRNAltracrRNA, or a Cpf1-NLS recombinant protein with its respective single guide crRNA(s) (see below) targeting a nucleotide sequence of the B2M gene, was co-incubated with different concentrations of the peptides FSD10, FSD18, FSD19, FSD21, FSD22, or FSD23 and incubated with HeLa, THP-1 or NK cells for 90 sec in PBS, or for 1 h in medium without serum, or for 48 h in medium with serum, using the transduction protocols as generally described in Example 3.1a. Cells were then washed with PBS and harvested to proceed with the T7E1 protocol assay as described in Example 13.4.
# FIGS. 52A-52D show the results of the cleavage of the targeted genomic B2M DNA sequence after the delivery of CRISPR/Cpf1 (1.33 μM) with crRNA−1 or crRNA−2 (2 μM) in the absence (“-ctrl”) or in the presence of the peptides FSD10, FSD18, FSD19, FSD21 or FSD23 used at different concentrations, exposure times, and in different types of cells: THP-1 (FIG. 52A), and NK (FIGS. 52B, 52C, 52D), after separation by agarose gel electrophoresis. […] Gel lanes were loaded in duplicate. Thin dashed arrows indicate the bands corresponding to the target gene, and thick solid arrows indicate the bands corresponding to the cleavage products of this target gene, which indicate the successful transduction of fully functional CRISPR genome editing complexes. We used a Bio-Rad ImageLab™ software (Version 5.2.1, Bio-Rad, http://www.bio-rad.com/en-ca/product/image-lab-software?tab=Download) to quantify the relative signal intensities of each of the different bands directly on the gels. The sum of all the bands in a given lane corresponds to 100% of the signal, and the numerical value in italics at the bottom of each lane is the sum of the relative signals (%) of only the two cleavage product bands (thick solid arrows). No cleavage product bands were found in the negative controls (“-ctrl”, i.e., to cells that were exposed to CRISPR system in the absence of FSD peptide).
# Cas9-NLS recombinant protein was prepared as described in Example 13.1. Cpf1-NLS recombinant protein was prepared as described in Example G.2. […]
# in vitro [3] = settings: human, HeLa cells; for viability: Cell viability (%) (±St Dev.; n = 3)
# THP-1 cells [4] = experiment: Cleaved PARP ELISA assay after transduction of anti-Active Caspase 3 or anti-TNF antibody (± actinomycin D); format: cell-based, human; settings: FSD23 7.5 μM, 5 min
# Procedure: as §1, §2
# HeLa cells [5] = experiment: Plasmid DNA (pEGFP-C1) transfection by peptides (% cells with GFP signal, cell viability); settings: DNA transfection in HeLa cells using peptides; pEGFP-C1 plasmid
# THP-1 cells [6] = experiment: GFP-NLS protein transduction assay (flow cytometry: Pos cells %, viability %, relative fluorescence intensity; microscopy); settings: for Mean % cells with GFP signal (±St. Dev.; n = 3): THP-1 cells, GFP-NLS 10 μM
# Procedure: (§3) One day before the transduction assay was performed, cells in exponential growth phase were harvested and plated in a 96-well plate (20,000 cells per well). The cells were incubated overnight in appropriate growth media containing FBS (see Example 1). The next day, in separate sterile 1.5 mL tubes, cargo protein at the indicated concentration was pre-mixed (pre-incubated) for 1 or 10 min (depending on the protocol) at 37° C. with the peptide(s) to be tested shuttle agents (0.5 to 5 μM) in 50 μL of fresh medium without serum (unless otherwise specified). The media in wells was removed and the cells were washed three times with freshly prepared phosphate buffered saline (PBS) previously warmed at 37° C. The cells were incubated with the cargo protein/shuttle agent mixture at 37° C. for the indicated time (e.g., 1, 5 or 60 min). After the incubation, the cells were quickly washed three times with freshly prepared PBS and/or heparin (0.5 mg/mL) previously warmed at 37° C. The washes with heparin were required for human THP-1 blood cells to avoid undesired cell membrane-bound protein background in subsequent analyses (microscopy and flow cytometry). The cells were finally incubated in 50 μL of fresh medium with serum at 37° C. before analysis.
# (§4) One day before the transduction assay was performed, suspension cells in exponential growth phase were harvested and plated in a 96-well plate (20,000 cells per well). The cells were incubated overnight in appropriate growth media containing serum (see Example 1). The next day, in separate sterile 1.5-mL tubes, peptides were diluted in sterile distilled water at room temperature (if the cargo is or comprised a nucleic acid, nuclease-free water was used). Cargo protein(s) were then added to the peptides and, if necessary, sterile PBS or cell culture medium (serum-free) was added to obtain the desired concentrations of shuttle agent and cargo in a sufficient final volume to resuspend the cells (e.g., 10 to 100 μL per well in a 96-well plate). The shuttle agent/peptide was then immediately used for experiments. At least three controls were included for each experiment, including: (1) peptide alone (e.g., at highest concentration tested); (2) cargo alone; and (3) without any cargo or shuttle agent. The cells were centrifuged for 2 minutes at 400g, the medium was then removed and the cells were resuspended in PBS previously warmed at 37° C. The cells were centrifuged again 2 minutes at 400g, the PBS removed, and the cells were resuspended with the cargo protein/peptide mixture at 37° C. for the desired length of time. After that, 200 μL of complete medium was added directly on the cells. Cells were centrifuged for 2 minutes at 400g and the medium was removed. The pellet was resuspended and washed in 200 μL of PBS previously warmed at 37° C. After another centrifugation, the PBS was removed and the cells were resuspended in 50 μL of trypsin-EDTA solution for 2 min. 200 of complete medium was directly added and cells were centrifuged for 2 minutes at 400g. The medium was removed and the cells were resuspended in 200 μL of complete medium.
# (§5) The cells incubated in 50 μL of fresh medium were directly observed by microscopy (Bright-field and fluorescence) at different power fields (4× to 40×). The cells were observed using a CoolSNAP-PRO™ camera (Series A02D874021) and images were acquired using the Image-Proplus™ software.
# (§6) The fluorescence of GFP was quantified using flow cytometry (Accuri C6, Becton, Dickinson and Company (BD)).
# HeLa cells [7] = experiment: Transduction of anti-NUP98 antibody, immuno-labelling and fluorescence microscopy; format: cell-based, Human; settings: FSD19 7.5 μM; 4 hours
# Procedure: Anti-NUP98 antibody […] was co-incubated with 7.5 μM of FSD19 and exposed to HeLa cells for 4 hours. Cells are washed, fixed with paraformaldehyde 4%, permeabilized with 0.1% Triton™ and labeled with a fluorescently labeled (Alexa™ Fluor 488) goat anti-rat antibody. Antibody bound to the perinuclear membrane and cell nuclei were visualized by fluorescence microscopy at 20× (upper panels) and 40× (lower panels).
# in vitro [8] = settings: human, THP-1 cells
# Procedure: as §3, §4, §5, §6
# primary myoblasts = experiment: Calcein endosomal escape assay, quantification by flow cytometry (mean counts, Mean Factor); format: cell-based, Human; settings: myoblast cells
# Excerpt: Calcein is a membrane-impermeable fluorescent molecule that is readily internalized by cells when administered to the extracellular medium. Its fluorescence is […] and calcein self-quenches at higher concentrations. Once internalized, calcein becomes sequestered at high concentrations in cell endosomes and can be visualized by fluorescence microscopy as a punctate pattern. Following endosomal leakage, calcein is released to the cell cytoplasm and this release can be visualized by fluorescence microscopy as a diffuse pattern.
# The cells were allowed to attach by incubating overnight in appropriate growth media, as described in Example 1. The next day, the media in wells was removed and replaced with 50 μL of fresh media without serum containing 62.5 μg/mL (100 μM) of calcein, except for HEK293A (250 μg/mL, 400 μM). […]
# Untreated calcein-loaded cells were used as a control to distinguish cells having a baseline of fluorescence due to endosomally-trapped calcein from cells having increased fluorescence due to release of calcein from endosomes. Fluorescence signal means (“mean counts”) were analyzed for endosomal escape quantification. In some cases, the “Mean Factor” was calculated, which corresponds to the fold-increase of the mean counts relative to control (untreated calcein-loaded cells). […] The cellular mortality was monitored with the percentage of cells in the total events scanned. […]
# HeLa cells [9] = experiment: FITC-labeled anti-tubulin antibody transduction assay (flow cytometry, cell viability, microscopy); settings: FITC-labeled anti-tubulin antibody 0.5 μM, HeLa, 1 hour; shuttle 3.5 μM
# Procedure: The delivery and microscopy protocols are described in Example 3.
# HeLa cells were cultured and tested in the protein transduction assay described in Example 3.1. […] The cells were subjected to flow cytometry analysis as described in Example 3.3.
# HeLa cells [10] = format: cell-based, Human; settings: GFP (5 μM), 1 hour
# Procedure: One day before the transduction assay was performed, cells in exponential growth phase were harvested and plated in a 96-well plate (20,000 cells per well). The cells were incubated overnight in appropriate growth media containing FBS (see Example 1). The next day, in separate sterile 1.5 mL tubes, cargo protein at the indicated concentration was pre-mixed (pre-incubated) for 1 or 10 min (depending on the protocol) at 37° C. with the peptide(s) to be tested shuttle agents (0.5 to 5 μM) in 50 μL of fresh medium without serum (unless otherwise specified). The media in wells was removed and the cells were washed three times with freshly prepared phosphate buffered saline (PBS) previously warmed at 37° C. The cells were incubated with the cargo protein/shuttle agent mixture at 37° C. for the indicated time (e.g., 1, 5 or 60 min). After the incubation, the cells were quickly washed three times with freshly prepared PBS and/or heparin (0.5 mg/mL) previously warmed at 37° C. […] The cells were finally incubated in 50 μL of fresh medium with serum at 37° C. before analysis.
# The Olympus filter U-MF2™ (C54942-Exc495/Em510) was used to observe GFP and FITC-labeled antibody fluorescent signals. […] The Olympus filter U-MWU2™ (Exc330/Em385) was used to observe DAPI or Blue Hoechst fluorescent signals. The cells incubated in 50 μL of fresh medium were directly observed by microscopy (Bright-field and fluorescence) at different power fields (4× to 40×). The cells were observed using a CoolSNAP-PRO™ camera (Series A02D874021) and images were acquired using the Image-Proplus™ software.
# The fluorescence of GFP was quantified using flow cytometry (Accuri C6, Becton, Dickinson and Company (BD)). Untreated cells were used to establish a baseline in order to quantify the increased fluorescence due to the internalization of the fluorescent protein in treated cells. The percentage of cells with a fluorescence signal above the maximum fluorescence of untreated cells, “mean %” or “Pos cells (%)”, is used to identify positive fluorescent cells. “Relative fluorescence intensity (FL1−A)” corresponds to the mean of all fluorescence intensities from each cell with a fluorescent signal after fluorescent protein delivery with the shuttle agent. Also, the events scanned by flow cytometry corresponding to cells (size and granularity) were analyzed. The cellular toxicity (% cell viability) was monitored comparing the percentage of cells in the total events scanned of treated cells comparatively to untreated cells.
# HeLa cells [11] = experiment: TAT-GFP protein transduction assay (flow cytometry, cell viability, fluorescence microscopy); format: cell-based, Human; settings: TAT-GFP 5 μM, 1 hour
# Procedure: Briefly, TAT-GFP recombinant protein (5 μM) was co-incubated with different concentrations of CM18-TAT-Cys (0, 0.5, 1, 3, or 5 μM) and then exposed to HeLa cells for 1 hour.
sequence,measurement,setting,value
HHHHHHLLKLWSRLLKEWTQGRRLEAKRAEAHHHHHH [FSD23],Mean % cells with GFP signal (±St. Dev.; n = 3),HeLa cells [1],50.34 ± 4.29%
same,NKG2A receptor expression on the cell surface after genome editing,NK-92 cells,two cell populations (peaks) were observed
same,"transduction of functional anti-Active Caspase 3 antibodies (cleaved PARP, in words)",Jurkat cells,successfully transduced functional anti-Active Caspase 3 antibodies
same,viability,in vitro [2],98.2 ± 1.03%
same,"delivery of CRISPR/Cpf1 complex, cleavage of genomic B2M (in words)",B2M genomic DNA sequence,successful delivery of the CRISPR genome-editing complexes to the nucleus
same,viability,in vitro [3],65.3 ± 5.44%
same,"transduction of functional anti-Active Caspase 3 antibodies (cleaved PARP, in words)",THP-1 cells [4],successfully transduced functional anti-Active Caspase 3 antibodies
same,Mean % cells with GFP signal (±St. Dev.; n = 3),HeLa cells [5],0.04 ± 0.00%
HHHHHHLLKLWSRLLKTWTQGRRLKAKSAQASTRQAHHHHHH [FSD19],Mean % cells with GFP signal (±St. Dev.; n = 3),HeLa cells [1],55.17 ± 4.62%
same,viability,in vitro [2],97.4 ± 2.07%
same,Mean % cells with GFP signal (±St. Dev.; n = 3),"THP-1 cells [6]; peptide 2 μM, incubation 0.5 min",55.4 ± 4.63%
same,Mean % cells with GFP signal (±St. Dev.; n = 3),"THP-1 cells [6]; peptide 5 μM, incubation 0.25 min",61.5 ± 6.07%
same,"delivery of CRISPR/Cpf1 complex, cleavage of genomic B2M (in words)",B2M genomic DNA sequence,successful delivery of the CRISPR genome-editing complexes to the nucleus
same,viability,in vitro [3],80.6 ± 5.36%
same,functionality of transduced anti-NUP98 antibody (microscopy),HeLa cells [7],anti-NUP98 antibody retained its functionality inside the cell following its transduction
same,"viability at 15 s, 5 µM",in vitro [8],60.5 ± 5.71%
same,"viability at 0.5 min, 2 µM",in vitro [8],68.7 ± 4.29%
same,Mean % cells with GFP signal (±St. Dev.; n = 3),HeLa cells [5],0.24 ± 0.00%
KWKLFKKIGAVLKVLTTGYGRKKRRQRRRC [CM18-TAT-Cys],FIG. 13B Cell viability (%) (±St Dev.; n = 3),HeLa cells [1]; shuttle 0.5 μM,87.6 ± 4%
same,FIG. 13B Cell viability (%) (±St Dev.; n = 3),HeLa cells [1]; shuttle 1 μM,93 ± 8%
same,FIG. 13B Cell viability (%) (±St Dev.; n = 3),HeLa cells [1]; shuttle 5 μM,93 ± 4%
same,FIG. 21B Cell viability (%) (±St. Dev.; n = 3),HeLa cells [1]; shuttle 3 μM,89 ± 5.37%
same,FIG. 21B Cell viability (%) (±St. Dev.; n = 3),HeLa cells [1]; shuttle 5 μM,81 ± 6.34%
same,peptide concentrations associated with an increase in cell toxicity,primary myoblasts,above 10 μM
same,FIG. 19B Cell viability (%) (± St. Dev.; n = 3),HeLa cells [9],95 ± 4.06%
same,Cell viability (%),HeLa cells [10]; shuttle 0.5 μM,88.4 ± 6%
same,Cell viability (%),HeLa cells [10]; shuttle 1 μM,90 ± 6%
same,Cell viability (%),HeLa cells [10]; shuttle 3 μM,91 ± 5%
same,Cell viability (%),HeLa cells [10]; shuttle 5 μM,90 ± 7%
same,viability,in vitro [2],96.3 ± 1.86%
same,FIG. 17B Cell viability (%) (±St Dev.; n = 3),"THP-1 cells [6]; Table 5.5, GFP-NLS 5 μM, THP-1, 5 minutes, shuttle 1 μM",85 ± 6%
same,"viability at 1 h, 1 µM",in vitro [3],94 ± 4.28%
same,FIG. 11B Cell viability (%) (±St. Dev.; n = 3),HeLa cells [11]; shuttle 0.5 μM,84.36 ± 5%
same,FIG. 11B Cell viability (%) (±St. Dev.; n = 3),HeLa cells [11]; shuttle 1 μM,89.26 ± 5.26%
same,FIG. 11B Cell viability (%) (±St. Dev.; n = 3),HeLa cells [11]; shuttle 3 μM,93.18 ± 6.28%
same,FIG. 11B Cell viability (%) (±St. Dev.; n = 3),HeLa cells [11]; shuttle 5 μM,95.14 ± 5.28%
